The values below come from patent US20190060308A1, “PHARMACEUTICAL COMPOSITION COMPRISING AN OMEGA-3 FATTY ACID AND A HYDROXY-DERIVATIVE OF A STATIN AND METHODS OF USING SAME” (Amarin Pharmaceuticals Ireland Limited, priority 2012, published 2019).

The subject of experiment [1] is human umbilical vein epithelial cells (HUVECs). In words: NO and ONOO^− release by HUVECs following stimulation with oxidized LDL (Example 2). The format is cell-based. As to conditions: calcium ionophore 1.0 μM, oxLDL 10 mg/dL, EPA 10.0 μM, rosuvastatin or ATM 1.0 μM. On the procedure:
An experiment was conducted to test the effects of EPA with rosuvastatin or atorvastatin active o-hydroxyl metabolite (“ortho-hydroxy atorvastatin” or “ATM”) on nitric oxide (NO) and peroxynitrite (ONOO^−) release by human umbilical vein epithelial cells (“HUVECs”) following stimulation with oxidized LDL. Nitric oxide bioavailability, peroxynitrite bioavailability, and the ratio of bioavailable nitric oxide to bioavailable peroxynitrite (NO/ONOO^−) serve as useful indicators of endothelial cell function. In particular, the NO/ONOO^− ratio can serve as an indicator of normal epithelial cell function.
In this experiment, HUVECs were equipped with prophyrinic nanosensors and then treated with calcium ionophore (1.0 μM). The HUVECs were then exposed to a solution of oxidized LDL (10 mg/dL).
HUVECs exposed to oxLDL were then treated with EPA alone (10.0 μM), a combination of EPA (10.0 μM) and rosuvastatin (1.0 μM), or a combination of EPA (10.0 μM) and ATM (1.0 μM).

The test system of experiment [2] is human umbilical vein endothelial cells (HUVECs). The experiment is described as follows: NO and ONOO^− release from HUVECs exposed to oxLDL, tandem electrochemical nanosensors (Example 3). The format is cell-based. The settings on record: for increase in NO/ONOO^− ratio: versus treatment with oxLDL and vehicle only, statin 1.0 μM. Here is the method: An experiment was conducted to test the effects of EPA with rosuvastatin, atorvastatin or o-hydroxyatorvastatin (an active hydroxyl metabolite, “ATM”) on nitric oxide (NO) and peroxynitrite (ONOO^−) release by human umbilical vein epithelial cells (“HUVECs”) following stimulation with oxidized LDL. Nitric oxide bioavailability, peroxynitrite bioavailability, and the ratio of bioavailable nitric oxide to bioavailable peroxynitrite (NO/ONOO^−) serve as useful indicators of endothelial cell function. In particular, the NO/ONOO^− ratio can serve as an indicator of normal epithelial cell function.
Human umbilical vein endothelial cells (HUVECs) were isolated into primary cultures from female donors by Clonetics (San Diego, Calif.) and purchased as proliferating cells. All cell culture donors were healthy, with no pregnancy or prenatal complications. […] The confluent cells (4 to 5×10^5 cells/35 mm dish) were placed with minimum essential medium containing 3 mM L-arginine and 0.1 mM BH4 [(6R)-5,6,7,8-tetrahydrobiopterin]. Before experimental use, the cells (from second or third passage) were rinsed twice with Tyrode-HEPES buffer with 1.8 mM CaCl2).
The effects of EPA treatment were tested in the absence and presence of statins in HUVECs following exposure to oxidized LDL (oxLDL). The oxLDL causes eNOS uncoupling and endothelial dysfunction to reproduced disease-like conditions. Venous blood from healthy normolipidemic volunteers was collected into Na-EDTA (1 mg/mL blood) vacuum tubes after a 12-hour fast. Plasma was immediately separated by centrifugation at 3,000 g for 10 minutes at 4° C. […] The purified LDL was dialyzed for 96 hours against PBS containing 0.3 mM EDTA at 4° C., then stored at 4° C.
A sample of LDL was dialyzed against Tris/NaCl Buffer (50 mM Tris in 0.15 M NaCl, pH 8.0) to remove the EDTA. Tris-NaCl buffer was added to the dialyzed n-LDL to adjust the protein concentration to 30 mg/mL. A 1-mL aliquot of 20 μM CuSO4 was added to 1 mL of dialyzed normal LDL. Oxidation at 37° C. was followed spectrophotometrically (234 nm) over a period of 24 hours until oxidation was complete. The oxLDL was then dialyzed at 4° C. with 4 L of Tris buffer, filtered with a 0.22 μm filter, and stored under nitrogen at 4° C.
Oxidation was monitored by the use of measurements of TBARS. Briefly, LDL was incubated with thiobarbituric acid (0.5 wt/vol, in H2SO4, 50 mM) for 30 minutes at 100° C. […] TBARS concentration was determined as malondialdehyde (MDA) equivalents with the use of an MDA standard curve.
Concurrent measurements of NO and ONOO^− were performed with tandem electrochemical nanosensors combined into one working unit with a total diameter of 200-400 nm. Their design was based on previously developed and chemically modified carbon-fiber technology. Each of the nanosensors was made by depositing a sensing material on the tip of a carbon fiber (length 4 to 5 μm, diameter 100-200 nm). The fibers were sealed with nonconductive epoxy and electrically connected to copper wires with conductive silver epoxy. Conductive films of polymeric Ni(II) tetrakis (3-methoxy-4-hydroxyphenyl) porphyrin and Mn(III) [2.2] paracyclophanylporphyrin were used for the NO and ONOO^− sensors, respectively.
The amperometric method (with a response time of 0.1 ms) provides a quantitative signal (current) that is directly proportional to changes (from basal levels) in NO or ONOO^− concentration. Amperometric measurements were performed with a Gamry III double-channel potentiostat. Basal NO or ONOO^− levels were measured by differential pulse voltammetry in separate experiments.
All measurements of NO and ONOO^− were performed on intact endothelial cells. The NO/ONOO^− nanosensor module was positioned 5±2 μm from the surface of each individual endothelial cell using a computer-controlled M3301 micromanipulator (x-y-z resolution of 0.2 μm) and microscope (both from World Precision Instruments, Berlin, Germany) fitted with a CD camera.

[3] abbreviates: HUVECs exposed to oxLDL, EPA 10 μM.
[4] abbreviates: compared to treatment with oxLDL and vehicle only, EPA 10 μM.

As for `CC(C)c1c(C(=O)Nc2ccccc2O)c(-c2ccccc2)c(-c2ccc(F)cc2)n1CC[C@@H](O)C[C@@H](O)CC(=O)O` [ATM, o-hydroxyatorvastatin], in experiment [1], the “NO” value is given as 199 ± 20 nM, the “NO/ONOO^−” value amounted to 0.8 and the “ONOO^−” value worked out at 236 ± 35 nM. In addition, the “increase in NO/ONOO^− ratio” value in experiment [2] (EPA 10 μM) was found to be 33%.

For `CC/C=C\C/C=C\C/C=C\C/C=C\C/C=C\CCCC(=O)O` [EPA, eicosapentaenoic acid], in experiment [1], the “NO” value came to 208 ± 32 nM, the “NO/ONOO^−” value came to 1.0 and the “ONOO^−” value came to 203 ± 21 nM. In experiment [2] (setting [3]), the NO release was 208 ± 32 nM and the “ONOO^− release” value turned out to be 203 ± 21 nM. For the same compound, in experiment [2] (setting [4]), the “increase in NO release” value came to 18% and the “reduction of ONOO^− release” value amounted to 16%. Besides, the “increase in NO/ONOO^− ratio” value in experiment [2] (EPA 10 μM) is 41%.

As for `c1ccc(Cn2nnc3c(Sc4nc5ccccc5o4)ncnc32)cc1` [VAS2870], the “increase in NO/ONOO^− ratio (in words)” value in experiment [2] (HUVECs exposed to oxLDL, VAS2870 alone or with EPA and statin) was “two-fold”.

Turning to `CC(C)c1c(C(=O)Nc2ccccc2)c(-c2ccccc2)c(-c2ccc(F)cc2)n1CC[C@@H](O)C[C@@H](O)CC(=O)O` [atorvastatin], in experiment [2] (EPA 10 μM), the “increase in NO/ONOO^− ratio” value was found to be 84%.

As for `CC(C)c1nc(N(C)S(C)(=O)=O)nc(-c2ccc(F)cc2)c1/C=C/[C@@H](O)C[C@@H](O)CC(=O)O` [rosuvastatin], in experiment [1], the “NO” value is reported as 191 ± 33 nM, the “NO/ONOO^−” value came to 0.8 and the “ONOO^−” value is on record as 252 ± 39 nM. Moreover, the “increase in NO/ONOO^− ratio” value in experiment [2] (EPA 10 μM) turned out to be 21%.
